# Data: patent publication US20210213104A1, “GLUCAGON AND GLP-1 CO-AGONISTS FOR THE TREATMENT OF CHRONIC KIDNEY DISEASE AND DIABETIC KIDNEY DISEASE IN TYPE 2 DIABETES” (MEDIMMUNE LIMITED, priority 2020, published 2021)
# “And” between values parts separate entries of the source, which are not always exact repeats. Equal entries are not always repeated.
# Assays:
# Type in all cases: in vivo, human
# [1] = test system: subjects with T2DM and renal impairment; assay: Phase 2a: eGFR (CKD-EPI equation); settings: Day 33 / after 32 days
# Text: Inclusion criteria: • Male and female subjects, aged ≥18 years and <85 years at screening; • Body mass index (BMI) between 25 kg/m^2 and 40 kg/m^2 (inclusive) at screening; • HbA1c range of 6.5% to 10.5% (inclusive) at the time of screening; • Diagnosed with T2DM with glucose control managed with any insulin and/or oral therapy combination where no significant dose changes of oral therapy of more than 50% had occurred in the 3 months prior to screening (at least 50% of the subject N=20) enrolled were required to have been taking insulin at a total daily dose of ≥20 units); • Renal impairment with eGFR ≥30 and <60 mL/min/1.73 m^2 at screening. Approximately 16 subjects (40%) were required to have a screening eGFR ≥45 and <60 mL/min/1.73 m^2 (in order to ensure subjects at both ends of the moderate renal impairment spectrum were adequately represented). eGFR was determined by the chronic kidney disease-epidemiology collaboration (CKD-EPI) equation. (eGFR=141×min(SCr/κ, 1)^α×max (SCr/κ, 1)^[…]^Age×1.018 [if female]×1.159 [if Black]; wherein SCr (standardized serum creatinine)=mg/dL, κ=0.7 (females) or 0.9 (males), α=−0.329 (females) or −0.411 (males), min=indicates the minimum of SCr/κ or 1, max=indicates the maximum of SCr/κ or 1, and age=years)
# [2] = test system: subjects with T2DM and renal impairment; assay: Phase 2a: HbA1c blood test; settings: ITT; for HbA1c LS Mean Change / HbA1c Change from Baseline, Mean / HbA1c Difference in LS Mean Change (vs Placebo): Day 1 to Day 32; for HbA1c LS Mean Change: ANCOVA
# Experimental: Cotadutide was titrated from 50 μg up to 300 μg and administered once daily by subcutaneous (SC) injection over 32 days.
# Cotadutide was administered at 50 μg once daily for 4 days, followed by 100 μg daily for 7 days, 200 μg daily for 7 days, and 300 μg daily for 14 days (n=20). Placebo was administered one daily for 32 days (n=20). Cotadutide and placebo were administered in the morning. Dosing commenced following predose baseline vital signs, blood tests (including HbA1c), an electrocardiogram (ECG), body weight measurement, and bioimpedance spectroscopy (BIS). Subjects then returned for daily dosing or remained overnight locally until Day 5, and thereafter, had visits at weekly intervals until a maintenance dose of 300 μg was established. Thus, Cotadutide or placebo was administered at the study site by study personal for the first four doses and on site on Days 5, 12, 19, and 32. At all other times, subjects preformed dosing at home.
# Blood samples were collected to evaluate blood glucose (fasting) and HbA1c levels.
# [3] = test system: patients with T2DM and chronic kidney disease (CKD) stage G3; assay: Phase 2a: C-peptide levels; settings: over 32 days; P<0.001
# Experimental: Over 32 days, 21 patients received once-daily subcutaneous cotadutide (n=21) titrated up to 300 μg, and 20 patients received placebo (PBO). […] Serious adverse events (AEs) were balanced between treatment arms; treatment-related AEs were more frequent with cotadutide (71%) vs PBO (35%). The most common AEs were nausea (cotadutide, 33%; PBO, 20%) and vomiting (cotadutide, 24%; PBO, 5%). […] Thus, in patients with T2DM and chronic kidney disease, cotadutide improved overall glycemic control and glucose responses to an MMTT with acceptable tolerability. Improvements in albuminuria indicate that cotadutide can slow long-term progression of CKD.
structure (smiles),measurement,setting,value
CCCCCCCCCCCCCCCC(=O)N[C@@H](CCC(=O)NCCCC[C@H](NC(=O)[C@H](CC(=O)O)NC(=O)[C@H](CO)NC(=O)[C@@H](NC(=O)[C@H](Cc1ccccc1)NC(=O)[C@@H](NC(=O)CNC(=O)[C@H](CCC(N)=O)NC(=O)[C@H](CO)NC(=O)[C@@H](N)Cc1c[nH]cn1)[C@@H](C)O)[C@@H](C)O)C(=O)N[C@@H](CO)C(=O)N[C@@H](CCC(=O)O)C(=O)N[C@@H](Cc1ccc(O)cc1)C(=O)N[C@@H](CC(C)C)C(=O)N[C@@H](CC(=O)O)C(=O)N[C@@H](CO)C(=O)N[C@@H](CCC(=O)O)C(=O)N[C@@H](CCCNC(=N)N)C(=O)N[C@@H](C)C(=O)N[C@@H](CCCNC(=N)N)C(=O)N[C@@H](CC(=O)O)C(=O)N[C@@H](Cc1ccccc1)C(=O)N[C@H](C(=O)N[C@@H](C)C(=O)N[C@@H](Cc1c[nH]c2ccccc12)C(=O)N[C@@H](CC(C)C)C(=O)N[C@@H](CCC(=O)O)C(=O)N[C@@H](C)C(=O)NCC(=O)NCC(=O)O)C(C)C)C(=O)O [Cotadutide],change in eGFR from baseline to end of dosing vs placebo,[1],No statistically significant difference
same,change in eGFR from baseline to end of dosing vs placebo,[1]; listed as cotadutide,no significant changes
same,HbA1c LS Mean Change,[2]; Insulin Dose < 20 U/day,−0.66%
same,HbA1c LS Mean Change,[2]; Insulin Dose ≥ 20 U/day,−0.57%
same,HbA1c LS Mean Change,[2]; Total,−0.65% and −0.7%
same,HbA1c LS Mean Change,"[2]; Total, listed as MEDI0382",−0.65%
same,"HbA1c Change from Baseline, Mean",[2]; Insulin Dose < 20 U/day,−0.829%
same,HbA1c Difference in LS Mean Change (vs Placebo),[2]; Insulin Dose < 20 U/day,−0.59%
same,HbA1c Difference in LS Mean Change (vs Placebo),[2]; Insulin Dose ≥ 20 U/day,−0.55%
same,"HbA1c Change from Baseline, Mean",[2]; Total,−0.653%
same,HbA1c Difference in LS Mean Change (vs Placebo),[2]; Total,−0.66%
same,"Hemoglobin A1C, Day 32, Mean",[2]; Insulin Dose < 20 U/day,6.943%
same,"Hemoglobin A1C, Day 32, Median",[2]; Insulin Dose < 20 U/day,6.900%
same,"Hemoglobin A1C, Day 32, Mean",[2]; Insulin Dose ≥ 20 U/day,7.392%
same,"Hemoglobin A1C, Day 32, Median",[2]; Insulin Dose ≥ 20 U/day,7.300%
same,"Hemoglobin A1C, Day 32, Mean",[2]; Total,7.226%
same,"Hemoglobin A1C, Day 32, Median",[2]; Total,7.200%
same,"C-peptide levels, LS mean change vs PBO",[3],0.88 µg/L
